Results on 12 compounds are retold here after US20250282753A1, “COMPOUNDS USEFUL FOR REDUCING URIC ACID” (ATOM BIOSCIENCE AMERICA CORPORATION, priority 2022, published 2025).

Where a name gives a salt, the structure may show the parent alone.

Data set [1] is described as follows: Pharmacokinetics of the compounds in SD rats (Example 36). Format: in vivo. The conditions noted are these: SD rat plasma. On the procedure:
Preparation of compound stock solution: An appropriate amount of compound solid powder was be weighed and added in a certain amount of DMSO, and vortex ultrasound to obtain a 10 mg/mL stock solution.
Preparation of test compound for gavage: respectively taking an appropriate amount of the compound stock solution, adding a certain amount of Solutol HS15 solution, vortexing for 1 minute, then adding a certain amount of physiological saline, and fully mixing to obtain a 1 mg/mL solution.
Preparation of test compound for intravenous injection: respectively taking an appropriate amount of the compound stock solution, adding a certain amount of Solutol HS15 solution, vortexing for 1 minute, then adding a certain amount of physiological saline, and fully mixing until uniform, so as to obtain a 0.5 mg/mL solution.
The experimental animals were fasted overnight before gavage administration, and were given food 4 hours after administration, with free access to water. Each test compound was divided into two groups, namely intravenous administration group and oral administration group.
Blood samples (150 μL/sample) were collected from the jugular vein of SD rats before administration and at 5 min (only intravenous administration group), 15 min, 30 min, 1 h, 2 h, 4 h, 8 h and 24 h after administration, respectively. The samples were placed in centrifuge tubes containing anticoagulant sodium heparin and centrifuged at 4° C., 2000 g for 5 minutes to separate plasma. The plasma samples were analyzed by LC/MS/MS to detect the concentration of each test compound.
Non-compartmental model-related parameters were calculated by WinNonlin® Professional software.

In data set [2] the test system is potassium oxonate-induced hyperuricemic rats. The data set is described as follows: Serum uric acid in potassium oxonate-induced hyperuricemic rats, 3 days of gavage (Example 35). Format: in vivo, SD rats. The conditions noted are these: for serum uric acid level compared with the model group at the same time point: 2 mg/kg for 3 days; for Uric acid 0 h / Uric acid 1 h / Uric acid 3 h / Uric acid 5 h: serum, 2 mg/kg gavage for 3 days, mean ± SD; for Uric acid 0 h: day 3, 0 h, before potassium oxonate injection, n=6; for Uric acid 1 h: day 3, 1 h after potassium oxonate injection; for Uric acid 3 h: day 3, 3 h after potassium oxonate injection; for Uric acid 5 h: day 3, 5 h after potassium oxonate injection. On the procedure: Compound 13 was a light yellow powder, and compounds 38 and 41 are pseudo-white powders, which are triturated with 0.5% CMC-Na just prior to use to prepare a 0.4 mg/mL suspension for gavage.
36 male SD rats weighed approximately 220-240 g after one week of adaptation. […] The drugs in each group were prepared into a corresponding concentration suspension, and the administration volume was 0.5 mL/100 g.
After the rats in each group were purchased and adapted to feeding, they were fasted for 12 h, and, intraperitoneally, injected with⋅ potassium⋅ gxonate at a⋅dose of 300 mg/kg to establish the model. 0.5 h after modeling, each test drug group was gavaged once. The drug was administered continuously for 3 days. On day 3, blood samples was collected from the retro-orbital venous plexus before and 1, 3, and 5 h after potassium oxonate injection. The samples were centrifuged at 3500 rpm for 10 min, and 30 μL of serum was collected to determine the uric acid level at each time point.
The measurement data of each test were expressed as (mean)±standard deviation). The comparison between groups used ANOVA-Dunnett T test to examine the significance. P<0.05 was used as the significance index, and P<0.01 was used as the extremely significant index.

[3] abbreviates: Intravenous injection administration - 1 mg/kg.
[4] abbreviates: po, Gavage administration - 10 mg/kg.
Setting [5] is: 1, 3, and 5 h after modeling, P<0.01 or P<0.05.

The term AUC(0-inf) denotes total exposure, with the tail of the curve extrapolated. Read a high AUC(0-inf) as more exposure. As a reminder, the Cmax is the highest concentration seen after dosing. The term MRT inf denotes the average time that molecules of a dose stay in the body. As usually defined, the Tmax is the time at which the peak concentration occurs. As usually defined, the half-life is how long it takes for the measured level to halve. A lower half-life goes with rapid decline.

For the compound `CCOC(=O)c1cnn(-c2ccc3c(c2)c(C#N)nn3C(C)C)c1` [Compound 2, ethyl 1-(3-cyano-1-isopropyl-1H-indazol-5-yl)-1H-pyrazole-4-carboxylate], in data set [1] (setting [3]), the AUC(0-inf) is 1400 ng·h/mL, the Cmax was 843 ng/mL, the MRT inf was determined as 5.05 h and the Tmax amounted to 0.139 h. Moreover, the half-life in data set [1] (setting [3]) was 6.12 h. Also, in data set [1] (setting [4]), the area under the curve AUC(0-inf) was 30100 ng·h/mL, the Cmax was 4780 ng/mL, the MRT inf is 4.78 h and the Tmax came out at 0.667 h. In addition, the half-life in data set [1] (setting [4]) was 2.91 h.

In the case of `CCOC(=O)OC(C)OC(=O)c1ccnc(-c2ccc3c(c2)c(C#N)nn3C(C)C)c1` (stereo not drawn) [Compound 26, ethyl {1-[(ethoxycarbonyl)oxy]} 2-(3-cyano-1-isopropyl-1H-indazol-5-yl) isonicotinate], in data set [1] (setting [3]), the AUC(0-inf) came out at 1290 ng·h/mL, the highest concentration (Cmax) was 1970 ng/mL, the MRT inf is 2.47 h and the Tmax amounted to 0.083 h. The half-life in data set [1] (setting [3]) was 7.11 h. In data set [1] (setting [4]), the AUC(0-inf) was 31000 ng·h/mL, the Cmax is 5520 ng/mL, the mean residence time (MRT inf) turned out to be 3.57 h and the time to peak (Tmax) worked out at 0.917 h. The compound also had a half-life in data set [1] (setting [4]) of 2.52 h.

On to `CC(=O)OCCOC(=O)c1ccnc(-c2ccc3c(c2)c(C#N)nn3C(C)C)c1` [Compound 28, (2-acetoxy)ethyl 2-(3-cyano-1-isopropyl-1H-indazol-5-yl) isonicotinate], for which, in data set [1] (setting [3]), the AUC(0-inf) was 947 ng·h/mL, the Cmax was 712 ng/mL, the mean residence time MRT inf was determined as 4.31 h and the Tmax amounted to 0.083 h. In data set [1] (setting [3]), this compound showed a half-life of 8.21 h. In addition, in data set [1] (setting [4]), the total exposure AUC(0-inf) was 15800 ng·h/mL, the Cmax stood at 3150 ng/mL, the MRT inf is 3.55 h and the time to peak (Tmax) was 2.17 h. In data set [1] (setting [4]), this compound gave a half-life of 2.93 h.

Consider `COC(=O)c1cnn(-c2ccc3c(c2)c(C#N)nn3C(C)C)c1` [Compound 5, methyl 1-(3-cyano-1-isopropyl-1H-indazol-5-yl)-1H-pyrazole-4-carboxylate], for which, in data set [1] (setting [3]), the AUC(0-inf) amounted to 1490 ng·h/mL, the Cmax is 554 ng/mL, the MRT inf stood at 8.38 h and the Tmax turned out to be 0.25 h. The same compound gave a half-life in data set [1] (setting [3]) of 7.45 h. In data set [1] (setting [4]), the AUC(0-inf) worked out at 25100 ng·h/mL, the maximum concentration (Cmax) came to 6750 ng/mL, the MRT inf was 3.17 h and the Tmax was 1.17 h. Further, in data set [1] (setting [4]), the half-life was 3.78 h.

In the case of `CC(C)n1nc(C#N)c2cc(-c3cc(C(=O)OCCCCO[N+](=O)[O-])ccn3)ccc21` [Compound 39, [4-(nitrooxy)] butyl 2-(3-cyano-1-isopropyl-1H-indazol-5-yl) isonicotinate], in data set [1] (setting [3]), the AUC(0-inf) was 886 ng·h/mL, the Cmax was determined as 714 ng/mL, the MRT inf is 7.16 h and the time to peak (Tmax) came to 0.083 h. Besides, the half-life in data set [1] (setting [3]) is 9.92 h. Further, in data set [1] (setting [4]), the AUC(0-inf) was 18300 ng·h/mL, the peak concentration (Cmax) was found to be 3900 ng/mL, the MRT inf came out at 3.9 h and the Tmax is 0.5 h. For the same compound, the half-life in data set [1] (setting [4]) is 3.03 h.

For the compound `COCCOC(=O)c1ccnc(-c2ccc3c(c2)c(C#N)nn3C(C)C)c1` [Compound 31, (2-methoxy)ethyl 2-(3-cyano-1-isopropyl-1H-indazol-5-yl) isonicotinate hydrobromide], in data set [1] (setting [3]), the AUC(0-inf) was determined as 1010 ng·h/mL, the Cmax turned out to be 904 ng/mL, the MRT inf was found to be 4.75 h and the Tmax was determined as 0.083 h. The compound further gave a half-life in data set [1] (setting [3]) of 9.03 h. Moreover, in data set [1] (setting [4]), the area under the curve AUC(0-inf) was 20900 ng·h/mL, the highest level (Cmax) was 4310 ng/mL, the mean residence time MRT inf was found to be 3.39 h and the time to peak (Tmax) came to 2 h. This compound showed a half-life in data set [1] (setting [4]) of 2.75 h.

Turning to `CC(C)=CCC/C(C)=C/CC/C(C)=C/COC(=O)c1cnn(-c2ccc3c(c2)c(C#N)nn3C(C)C)c1` [Compound 13, (3,7,11-trimethyldodecyl-2,6,10-trien-1-yl) 1-(3-cyano-1-isopropyl-1H-indazol-5-yl)-1H-pyrazole-4-carboxylate], in data set [2] (setting [5]), the “serum uric acid level compared with the model group at the same time point” value is listed as “significantly reduce”. Also, in data set [2], the “Uric acid 0 h” value is 40.7 ± 4.4 µmol/L, the “Uric acid 1 h” value came out at 42.1 ± 10.6 µmol/L, the “Uric acid 3 h” value came out at 66.0 ± 10.7 µmol/L and the “Uric acid 5 h” value turned out to be 75.0 ± 7.1 µmol/L.

As to `CC(C)n1nc(C#N)c2cc(-n3cc(C(=O)Oc4cccc(CO[N+](=O)[O-])c4)cn3)ccc21` [Compound 41, [3-(nitrooxy)methyl]phenyl 1-(3-cyano-1-isopropyl-1H-indazol-5-yl)-1H-pyrazole-4-carboxylate], in data set [2] (3 and 5 h after modeling, P<0.01), the “serum uric acid level compared with the model group at the same time point” value was “significantly reduce”. Moreover, in data set [2], the “Uric acid 0 h” value worked out at 50.6 ± 7.3 µmol/L, the “Uric acid 1 h” value was found to be 74.1 ± 16.5 µmol/L, the “Uric acid 3 h” value was 72.2 ± 20.2 µmol/L and the “Uric acid 5 h” value came out at 55.4 ± 14.9 µmol/L.

As to `CC(C)n1nc(C#N)c2cc(-n3cc(C(=O)OCCCCO[N+](=O)[O-])cn3)ccc21` [Compound 38, [4-(nitrooxy)] butyl 1-(3-cyano-1-isopropyl-1H-indazol-5-yl)-1H-pyrazole-4-carboxylate], the “serum uric acid level compared with the model group at the same time point” value in data set [2] (setting [5]) is reported as “significantly reduce”. In addition, in data set [2], the “Uric acid 0 h” value stood at 51.7 ± 5.9 µmol/L, the “Uric acid 1 h” value was 67.5 ± 19.3 µmol/L, the “Uric acid 3 h” value was found to be 69.0 ± 24.7 µmol/L and the “Uric acid 5 h” value came out at 51.7 ± 6.7 µmol/L.

As to `CC(C)OC(=O)c1cnn(-c2ccc3c(c2)c(C#N)nn3C(C)C)c1` [Compound 7, isopropyl 1-(3-cyano-1-isopropyl-1H-indazol-5-yl)-1H-pyrazole-4-carboxylate], in data set [1] (setting [3]), the area under the curve AUC(0-inf) was determined as 674 ng·h/mL, the highest level (Cmax) was 338 ng/mL, the MRT inf was 7.65 h and the time to peak (Tmax) is 0.194 h. The half-life in data set [1] (setting [3]) was 8.6 h. In addition, in data set [1] (setting [4]), the total exposure AUC(0-inf) stood at 12900 ng·h/mL, the highest concentration (Cmax) worked out at 2920 ng/mL, the MRT inf was 3.84 h and the Tmax was determined as 0.5 h. Also, in data set [1] (setting [4]), the half-life is 3.27 h.

Consider `CC(C)n1nc(C#N)c2cc(-c3cc(C(=O)Oc4cccc(CO[N+](=O)[O-])c4)ccn3)ccc21` [Compound 42, [3-(nitrooxy)methyl]phenyl 2-(3-cyano-1-isopropyl-1H-indazol-5-yl) isonicotinate], for which, in data set [1] (setting [3]), the AUC(0-inf) amounted to 767 ng·h/mL, the peak level (Cmax) was 2.82 ng/mL, the MRT inf is 3.37 h and the Tmax was determined as 0.083 h. In addition, the half-life in data set [1] (setting [3]) is 6.44 h. In data set [1] (setting [4]), the AUC(0-inf) was determined as 8640 ng·h/mL, the Cmax was found to be 1510 ng/mL, the MRT inf turned out to be 4.12 h and the time of peak concentration (Tmax) worked out at 1.58 h. Besides, the half-life in data set [1] (setting [4]) was 2.91 h.

For the compound `COC(=O)c1ccnc(-c2ccc3c(c2)c(C#N)nn3C(C)C)c1` [Compound 19, methyl 2-(3-cyano-1-isopropyl-1H-indazol-5-yl) isonicotinate], in data set [1] (setting [3]), the AUC(0-inf) worked out at 776 ng·h/mL, the highest level (Cmax) was 518 ng/mL, the MRT inf was 6.46 h and the Tmax stood at 0.25 h. In data set [1] (setting [3]), this compound gave a half-life of 8.78 h. In data set [1] (setting [4]), the total exposure AUC(0-inf) is 25300 ng·h/mL, the peak level (Cmax) was 6170 ng/mL, the MRT inf is 2.86 h and the time to peak (Tmax) was 0.667 h. The half-life in data set [1] (setting [4]) is 2.33 h.
